In patent US20230278993A1, “NOVEL TRICYCLIC AROMATIC HETEROCYCLIC COMPOUND AND PREPARATION METHOD THEREFOR, PHARMACEUTICAL COMPOSITION AND USE THEREOF” (SHANGHAI LONGWOOD BIOPHARMACEUTICALS CO., LTD., priority 2020, published 2023) one finds IC50 data, which are given here for seven molecules.

For this test, the target named is PD-1/PD-L1 (Homo sapiens (Human), UniProt Q9NZQ7). Put plainly: PD-1/PD-L1 homogeneous time-resolved fluorescence (HTRF) binding assay. Conditions: recombinant human PD-L1 (19-238) His-tagged, human PD-1 (25-167) Fc tag; 25° C., PBS pH 7.4. How it is done: Example A: PD-1/PD-L1 Homogeneous Time-Resolved Fluorescence (HTRF) Binding Assay
Assays were performed in standard black 384-well polystyrene plates and a final volume was 20 μL. The inhibitor was first serially diluted with DMSO and added to the wells of the plate, followed by the addition of other reaction components. The final concentration of DMSO in the assay was 1%. Assays were performed at 25° C. in PBS buffer (pH 7.4) containing 0.05% Tween-20 and 0.1% BSA. Recombinant human PD-L1 protein (19-238) with a His-tagged at the C-terminus was purchased from AcroBiosystems (PD1-H5229). Recombinant human PD-1 protein (25-167) with an Fc tag at the C-terminus was also purchased from AcroBiosystems (PD1-H5257). The PD-L1 and PD-1 proteins were diluted in assay buffer and then […] of the solution was extracted and added to the wells of the plate. Plates were centrifuged and proteins and inhibitors were preincubated for 40 minutes. After incubation, […] of HTRF detection buffer containing europium […] labeled anti-human IgG (PerkinElmer-AD0212), Fc-specific and anti-His SureLight@-Allophycocyanin (APC, PerkinElmer-AD0059H) conjugated antibodies was added. After centrifugation, the plates were incubated at 25° C. for 60 minutes. Data was read in a PHERAstar FS plate reader (665 nm/620 nm ratio). Final concentrations in the assay were ˜3 nM of PD1, 10 nM of PD-L1, 1 nM of europium anti-human IgG, and 20 nM of anti-His-allophycocyanin. Activity data were fitted using GraphPad Prism 5.0 software to derive IC50 values for inhibitors.
The IC50 values of the compounds exemplified in the examples are expressed in the following manner: IC50: +: ≤100 nM; ++: 100 nM˜1000 nM; +++: >1000 nM. The data of the example compounds obtained using the PD-1/PD-L1 homogeneous time-resolved fluorescence (HTRF) binding assay described in Example A were provided in Table 1.
(TR-FRET usually uses a lanthanide donor and a delayed reading to cut background.)

PD-1/PD-L1, sequence (Q9NZQ7 19-238): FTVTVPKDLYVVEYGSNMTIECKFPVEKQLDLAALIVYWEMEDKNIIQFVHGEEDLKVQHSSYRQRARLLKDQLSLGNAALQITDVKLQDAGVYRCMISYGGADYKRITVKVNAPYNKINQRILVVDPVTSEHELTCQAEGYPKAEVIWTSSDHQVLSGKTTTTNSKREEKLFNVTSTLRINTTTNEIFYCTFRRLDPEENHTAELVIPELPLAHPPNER

For `Cc1c(-c2ccc3c(c2)OCCO3)cccc1-c1nc2cc3c(c(C#N)c2o1)CC[C@H]3N1CC[C@@H](C(=O)O)C1` [Compound 047], the IC50 (in general, the concentration that inhibits the measured activity by half) was at most 100 nM.
For `N#Cc1c2c(cc3nc(-c4cccc(-c5ccc6c(c5)OCCO6)c4Cl)oc13)[C@H](N1CC[C@@H](C(=O)NS(=O)(=O)C3CC3)C1)CC2` [Compound 025], the IC50 was at most 100 nM.
Consider `O=C(O)[C@@H]1CCN([C@@H]2CCc3c2cc2cc(-c4cccc(-c5ccccc5)c4Cl)oc2c3F)C1` [Compound 005], for which the IC50 was at most 100 nM.
Consider `Cc1c(-c2ccc3c(c2)OCCO3)cccc1-c1cc2cc3c(c(C#N)c2o1)CC[C@H]3N1CC[C@@H](C(=O)O)C1` [Compound 013], for which the IC50 was at most 100 nM.
Take `N#Cc1c2c(cc3nc(-c4cccc(-c5ccc6c(c5)OCCO6)c4Cl)oc13)[C@@H](N1CC[C@@H](C(=O)O)C1)CC2` [Compound 026]: the IC50 is at most 100 nM.
For `Cc1c(-c2ccc3c(c2)OCCO3)cccc1-c1nc2cc3c(c(C#N)c2o1)CC[C@H]3NCCC(=O)O` [Compound 049], the IC50 was at most 100 nM.
For the molecule `N#Cc1c2c(cc3nc(-c4cccc(-c5ccc6c(c5)OCCO6)c4Cl)oc13)[C@H](NCCC(=O)O)CC2` [Compound 050], the IC50 was at most 100 nM.
